According to ChEMBL document CHEMBL1201862, “PubChem BioAssay data set” (2004):
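Interpolation was linear, between the two tested concentrations surrounding the appropriate level; five concentrations were tested over 48 hours in 96-well plates. Here, GI50 denotes the concentration required for 50% inhibition of growth.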 Activity calls are given as the source filed them. Rule as the data show it: active = GI50 up to about 1.1 µM and inactive = higher.

Key:
Assay in all cases: DTP human tumour cell line panel, 48 h
[1] = tested on: SF-295
[2] = tested on: NCI-H23
[3] = tested on: SR
[4] = tested on: COLO 205
[5] = tested on: HT-29
[6] = tested on: HCT-15
[7] = tested on: TK-10
[8] = tested on: HL-60
[9] = tested on: OVCAR-3
[10] = tested on: BT-549
[11] = tested on: ACHN
[12] = tested on: U-251
[13] = tested on: SK-MEL-5
[14] = tested on: M14
[15] = tested on: UO-31
[16] = tested on: HCT-116
[17] = tested on: RXF 393
[18] = tested on: MOLT-4
[19] = tested on: SK-OV-3

Row | SMILES | GI50 [1] | GI50 [2] | GI50 [3] | GI50 [4] | GI50 [5] | GI50 [6] [µM] | GI50 [7] | GI50 [8] | GI50 [9] | GI50 [10] | GI50 [11] | GI50 [12] | GI50 [13] | GI50 [14] | GI50 [15] | GI50 [16] | GI50 [17] | GI50 [18] | GI50 [19]
1 | CC(C)c1cc(C(C)C)c(Cl)c(Cl)c1O.CC(C)c1cc(Cl)c(O)c(C(C)C)c1Cl | 18.7 µM (inactive) | 39.2 µM (inactive) | 9.25 µM (inactive) | 20.2 µM (inactive) | 24 µM (inactive) | 36.7 | 26.5 µM (inactive) | 18.3 µM (inactive) | 24.5 µM (inactive) | 19.9 µM (inactive) | 23.4 µM (inactive) | 34.7 µM (inactive) | 0.063 µM (active) | 71.8 µM (inactive) | 23.2 µM (inactive) | 76.7 µM (inactive) | 12.5 µM (inactive) |  | 
2 | COC1CC(OC2C(C)OC(OC3C(C)OC(OC4C(O)CC(O[C@H]5CC[C@@]6(C)C(=CC[C@]7(O)[C@@H]6C[C@@H](OC(C)=O)[C@@]6(C)[C@]7(O)CC[C@@]6(O)C(C)=O)C5)OC4C)CC3OC)CC2OC)OC(C)C1O (stereo partly drawn) | > 12.5 µM (inactive) | > 12.5 µM (inactive) | > 12.5 µM (inactive) | > 12.5 µM (inactive) | > 12.5 µM (inactive) | > 12.5 | > 12.5 µM (inactive) | > 12.5 µM (inactive) | > 12.5 µM (inactive) | > 12.5 µM (inactive) | > 12.5 µM (inactive) | > 12.5 µM (inactive) | > 12.5 µM (inactive) | > 12.5 µM (inactive) | 5.61 µM (inactive) | > 12.5 µM (inactive) |  | > 12.5 µM (inactive) | > 12.5 µM (inactive)
3 | CC(C)(C)OC(=O)NCC(=O)N1CCCN(C(=O)CNC(=O)OC(C)(C)C)CC1 | > 100 µM (inactive) | > 100 µM (inactive) |  | > 100 µM (inactive) | > 100 µM (inactive) | > 100 | > 100 µM (inactive) | > 100 µM (inactive) | > 100 µM (inactive) | > 100 µM (inactive) | > 100 µM (inactive) | > 100 µM (inactive) | > 100 µM (inactive) | > 100 µM (inactive) | > 100 µM (inactive) | > 100 µM (inactive) | > 100 µM (inactive) | > 100 µM (inactive) | > 100 µM (inactive)
4 | COc1ccc2c(c1)C/C(=C\c1ccc(O)c(OC)c1)C2=O |  | > 100 µM (inactive) | > 100 µM (inactive) |  | > 100 µM (inactive) | > 100 | > 100 µM (inactive) | > 100 µM (inactive) | > 100 µM (inactive) | > 100 µM (inactive) | > 100 µM (inactive) | > 100 µM (inactive) | > 10 µM (inactive) | > 100 µM (inactive) | > 100 µM (inactive) |  |  | > 100 µM (inactive) | > 100 µM (inactive)
5 | COc1c(O)c(OC)c2oc(-c3ccc(O)cc3)c(OC)c(=O)c2c1O | > 100 µM (inactive) | 30.8 µM (inactive) | 60.1 µM (inactive) | 99.5 µM (inactive) | 32.4 µM (inactive) | 28.1 | 61.5 µM (inactive) | > 100 µM (inactive) | 14.8 µM (inactive) | 43.2 µM (inactive) | 33.6 µM (inactive) | 23.9 µM (inactive) | 17.4 µM (inactive) | 47.2 µM (inactive) | 34.7 µM (inactive) | 46.3 µM (inactive) |  | 57 µM (inactive) | 17 µM (inactive)
6 | Cc1ccc(S[C@@](C=O)(NC(=O)OCc2ccccc2)C(F)(F)F)cc1 | 31 µM (inactive) | 19.5 µM (inactive) | 14.5 µM (inactive) | 17 µM (inactive) | 16.9 µM (inactive) | 22.9 |  | 16.5 µM (inactive) | 42 µM (inactive) | 28.4 µM (inactive) |  | 17.6 µM (inactive) | 23.7 µM (inactive) | 29.1 µM (inactive) | 15.6 µM (inactive) | 16.1 µM (inactive) | 14.4 µM (inactive) | 21.5 µM (inactive) | 45 µM (inactive)
7 | O=C1CSC(c2ccc([N+](=O)[O-])cc2)N1c1ccc(-n2c(-c3ccccc3)nc3ccccc3c2=O)cc1 (stereo not drawn) | > 100 µM (inactive) | > 100 µM (inactive) | 14.6 µM (inactive) | > 100 µM (inactive) | > 100 µM (inactive) | 41.3 | > 100 µM (inactive) | > 100 µM (inactive) | > 100 µM (inactive) | 16.7 µM (inactive) | 77.8 µM (inactive) | > 100 µM (inactive) | 82.2 µM (inactive) | > 100 µM (inactive) | 2.56 µM (inactive) | 61.9 µM (inactive) |  | 29.5 µM (inactive) | > 100 µM (inactive)
8 | Cc1ccc(S(=O)(=O)C2=C(C(C)C)N=NC2(C)C)cc1 | 71.8 µM (inactive) | 48.8 µM (inactive) | 29.3 µM (inactive) |  | > 100 µM (inactive) | 73.6 | > 100 µM (inactive) | > 100 µM (inactive) | > 100 µM (inactive) | 48.8 µM (inactive) | > 100 µM (inactive) | > 100 µM (inactive) | 79.8 µM (inactive) | > 100 µM (inactive) | > 100 µM (inactive) | 65.5 µM (inactive) | 66.5 µM (inactive) | 18.7 µM (inactive) | 
